Experimental data from paper PMC11671526, “β-caryophyllene sensitizes hepatocellular carcinoma cells to chemotherapeutics and inhibits cell malignancy through targeting MAPK signaling pathway” (Frontiers in Pharmacology, 2024).

Tested on: HepG2 cells
Assay: RNA-seq transcriptome analysis of differentially expressed genes
Assay type: cell-based, human
Details: BCP vs control HepG2
Experimental: The quality and concentration of RNA were examined by MOPS RNA electrophoresis and Eppendorf BioSpectrometer. The transcriptome analysis was performed by BGI-Wuhan China. The RNA-seq dataset of this study is accessible in the Gene Expression Omnibus (GEO) with an access number of GSE276099. The sequence library for each sample was prepared using the BGISEQ-500 platform with a 50-bp single-end (SE50) format. […]2.2.1) was used to align the clean reads to the reference genome and alignment of the clean reads to the reference genes was carried out using Bowtie2 (v2.4.5) ([Langmead and Salzberg, 2012]; [Kim et al., 2015]). Gene expression levels were calculated by RSEM (v1.3.1) ([Li and Dewey, 2011]). Analysis of differential gene expression was performed using edgeR in the Bioconductor software package ([Robinson et al., 2010]). Using a standard protocol, the RNA samples were also examined by reverse transcription and quantitative polymerase chain reaction (RT-qPCR). In brief, for reverse transcription, total RNA (1 μg) and gDNA wiper Mix were incubated at 42°C for 2 min. The samples were immediately incubated with a master mix containing 10 pmol/μL of poly (dT) primers at 37°C for 15 min and 85°C for 5 s. To detect the expression of specific genes by qPCR analysis, gene-specific primers (shown in Supplementary Table S1) were mixed with the ChamQ Universal SYBER qPCR Master Mix and the reaction was conducted using the Roche Lightcycler 480. The GAPDH value was used to normalize the results of each gene. The RNA-seq data of BCP-treated HepG2 cells were screened for DEGs. Gene symbols were turned into Enterz ID using the org.Hs.eg.db Bio-conductor R package. The cluster profiler (v4.6.2) package was used to perform the Kyoto Encyclopedia of Genes and Genomes (KEGG) and Gene Ontology (GO) enrichment analyses ([Wu et al., 2021]). Following the Transcript per million (TPM) data of the dataset, the line chart, and heatmap were plotted using ggplot2 and pheatmap R packages, respectively.

## C=C1CC/C=C(\C)CC[C@@H]2[C@@H]1CC2(C)C [BCP, β-caryophyllene]
Gene APOBEC3C, RNA-seq
  logFC APOBEC3C: -0.5856
Gene APOBEC3C, DEG direction
  change APOBEC3C: Down
Gene ARRB1, RNA-seq
  logFC ARRB1: -0.7626
Gene ARRB1, DEG direction
  change ARRB1: Down
Gene ATP9A, RNA-seq
  logFC ATP9A: 0.6507
Gene ATP9A, DEG direction
  change ATP9A: Up
Gene ATP11C, RNA-seq
  logFC ATP11C: -0.7847
Gene ATP11C, DEG direction
  change ATP11C: Down
Gene AXIN2, RNA-seq
  logFC AXIN2: 0.6672
Gene AXIN2, DEG direction
  change AXIN2: Up
Gene B4GALNT4, RNA-seq
  logFC B4GALNT4: -0.5947
Gene B4GALNT4, DEG direction
  change B4GALNT4: Down
Gene BACE2, RNA-seq
  logFC BACE2: 0.7147
Gene BACE2, DEG direction
  change BACE2: Up
Gene BICDL1, RNA-seq
  logFC BICDL1: -0.8616
Gene BICDL1, DEG direction
  change BICDL1: Down
Gene BIRC7, RNA-seq
  logFC BIRC7: 0.7538
Gene BIRC7, DEG direction
  change BIRC7: Up
Gene BIVM-ERCC5, RNA-seq
  logFC BIVM-ERCC5: 0.699
Gene BIVM-ERCC5, DEG direction
  change BIVM-ERCC5: Up
Gene BLCAP, RNA-seq
  logFC BLCAP: -0.6138
Gene BLCAP, DEG direction
  change BLCAP: Down
Gene BMP2, RNA-seq
  logFC BMP2: 0.7686
Gene BMP2, DEG direction
  change BMP2: Up
Gene BUB1B-PAK6, RNA-seq
  logFC BUB1B-PAK6: -1.6183
Gene BUB1B-PAK6, DEG direction
  change BUB1B-PAK6: Down
Gene C1orf198, RNA-seq
  logFC C1orf198: 0.6
Gene C1orf198, DEG direction
  change C1orf198: Up
Gene C1orf216, RNA-seq
  logFC C1orf216: -0.8102
Gene C1orf216, DEG direction
  change C1orf216: Down
Gene C3orf80, RNA-seq
  logFC C3orf80: -1.174
Gene C3orf80, DEG direction
  change C3orf80: Down
Gene C4B, RNA-seq
  logFC C4B: 2.54
Gene C4B, DEG direction
  change C4B: Up
Gene C11orf86, RNA-seq
  logFC C11orf86: -1.473
Gene C11orf86, DEG direction
  change C11orf86: Down
Gene C19orf71, RNA-seq
  logFC C19orf71: 0.8161
Gene C19orf71, DEG direction
  change C19orf71: Up
Gene CA5B, RNA-seq
  logFC CA5B: -1.2201
Gene CA5B, DEG direction
  change CA5B: Down
Gene CARD6, RNA-seq
  logFC CARD6: -1.5314
Gene CARD6, DEG direction
  change CARD6: Down
Gene CCDC24, RNA-seq
  logFC CCDC24: 1.127
Gene CCDC24, DEG direction
  change CCDC24: Up
Gene CCDC86, RNA-seq
  logFC CCDC86: -0.7779
Gene CCDC86, DEG direction
  change CCDC86: Down
Gene CCL2, RNA-seq
  logFC CCL2: -1.48
Gene CCL2, DEG direction
  change CCL2: Down
Gene CCL5, RNA-seq
  logFC CCL5: -1.124
Gene CCL5, DEG direction
  change CCL5: Down
Gene CCL26, RNA-seq
  logFC CCL26: -1.513
Gene CCL26, DEG direction
  change CCL26: Down
Gene CELF2, RNA-seq
  logFC CELF2: 0.8875
Gene CELF2, DEG direction
  change CELF2: Up
Gene CHST2, RNA-seq
  logFC CHST2: -1.145
Gene CHST2, DEG direction
  change CHST2: Down
Gene CKAP2L, RNA-seq
  logFC CKAP2L: 0.6857
Gene CKAP2L, DEG direction
  change CKAP2L: Up
Gene CLDN2, RNA-seq
  logFC CLDN2: 1.355
Gene CLDN2, DEG direction
  change CLDN2: Up
Gene CLIP2, RNA-seq
  logFC CLIP2: -0.6426
Gene CLIP2, DEG direction
  change CLIP2: Down
Gene CLK1, RNA-seq
  logFC CLK1: 0.5953
Gene CLK1, DEG direction
  change CLK1: Up
Gene CLTCL1, RNA-seq
  logFC CLTCL1: 0.7125
Gene CLTCL1, DEG direction
  change CLTCL1: Up
Gene COL1A1, RNA-seq
  logFC COL1A1: 0.6324
Gene COL1A1, DEG direction
  change COL1A1: Up
Gene COL4A1, RNA-seq
  logFC COL4A1: 0.7663
Gene COL4A1, DEG direction
  change COL4A1: Up
Gene COL7A1, RNA-seq
  logFC COL7A1: 0.6003
Gene COL7A1, DEG direction
  change COL7A1: Up
Gene CPM, RNA-seq
  logFC CPM: 0.6061
Gene CPM, DEG direction
  change CPM: Up
Gene CPS1, RNA-seq
  logFC CPS1: 0.6121
Gene CPS1, DEG direction
  change CPS1: Up
Gene CRABP2, RNA-seq
  logFC CRABP2: -0.6843
Gene CRABP2, DEG direction
  change CRABP2: Down
Gene CREB3L4, RNA-seq
  logFC CREB3L4: 0.5981
Gene CREB3L4, DEG direction
  change CREB3L4: Up
Gene CREG2, RNA-seq
  logFC CREG2: 0.6638
Gene CREG2, DEG direction
  change CREG2: Up
Gene CRELD1, RNA-seq
  logFC CRELD1: 0.9439
Gene CRELD1, DEG direction
  change CRELD1: Up
Gene CSRP2, RNA-seq
  logFC CSRP2: 0.7909
Gene CSRP2, DEG direction
  change CSRP2: Up
Gene CYP1A1, RNA-seq
  logFC CYP1A1: -0.7093
Gene CYP1A1, DEG direction
  change CYP1A1: Down
Gene CYP3A5, RNA-seq
  logFC CYP3A5: -1.0618
Gene CYP3A5, DEG direction
  change CYP3A5: Down
Gene CYP3A7, RNA-seq
  logFC CYP3A7: -2.402
Gene CYP3A7, DEG direction
  change CYP3A7: Down
Gene CYP11A1, RNA-seq
  logFC CYP11A1: -1.306
Gene CYP11A1, DEG direction
  change CYP11A1: Down
Gene CYP26B1, RNA-seq
  logFC CYP26B1: -0.8298
Gene CYP26B1, DEG direction
  change CYP26B1: Down
Gene DAAM1, RNA-seq
  logFC DAAM1: -0.6083
Gene DAAM1, DEG direction
  change DAAM1: Down
Gene DDIT3, RNA-seq
  logFC DDIT3: 0.9459
Gene DDIT3, DEG direction
  change DDIT3: Up
Gene DDR2, RNA-seq
  logFC DDR2: 0.7117
Gene DDR2, DEG direction
  change DDR2: Up
Gene DENND2D, RNA-seq
  logFC DENND2D: -1.958
Gene DENND2D, DEG direction
  change DENND2D: Down
Gene DEPDC1, RNA-seq
  logFC DEPDC1: 0.5867
Gene DEPDC1, DEG direction
  change DEPDC1: Up
Gene DGKD, RNA-seq
  logFC DGKD: 0.5855
Gene DGKD, DEG direction
  change DGKD: Up
Gene DLG2, RNA-seq
  logFC DLG2: -1.169
Gene DLG2, DEG direction
  change DLG2: Down
Gene DNER, RNA-seq
  logFC DNER: 1.171
Gene DNER, DEG direction
  change DNER: Up
Gene DOCK4, RNA-seq
  logFC DOCK4: -0.9058
Gene DOCK4, DEG direction
  change DOCK4: Down
Gene EFNB2, RNA-seq
  logFC EFNB2: -0.688
Gene EFNB2, DEG direction
  change EFNB2: Down
Gene EGLN3, RNA-seq
  logFC EGLN3: -0.764
